Key:
[1] = system: LXFA 526 human tumor xenograft cells; experiment: Oncotest tumor clonogenic assay, LXFA 526; assay type: cell-based; settings: colony formation, NSCLC LXFA 526, adeno carcinoma, pd, read-out: Absolute IC50
[2] = system: AKT1(pT308); experiment: AlphaScreen SureFire p-AKT (Thr308) in U87MG cells; assay type: cell-based; settings: Homo sapiens, U-87 MG, 1 h, n = 4, read-out: AKT1(pT308) Absolute IC50
Procedure: This homogeneous assay format uses immuno-sandwich capture of the phosphorylated analyte and then detection with antibody-coated Alphascreen beads to generate an amplified signal.
Maintain U87MG cells in U87MG growth medium consisting of DMEM (GIBCO 11965-092) supplemented with 10% fetal bovine serum (FBS, GIBCO, 10091-141), 1% nonessential amino acids (GIBCO, 11140-050) and 1% sodium pyruvate (GIBCO, 11360-070). Harvest cells using standard cell culture procedures and then count using Vi-Cell. Plate 100 μL of U87MG cells in growth medium (50,000 cells/well) into Costar #3596 96 well plates and incubate overnight at 37° C., 5% CO2.
Incubate for one h at 37° C., then remove the medium and add 50 μL of 1× SureFire Lysis Buffer (TGR Biosciences SureFire® Kit component) to each well and incubate at room temperature for 10 min with gentle shaking Transfer 6 μL lysate and 10 μL reaction mixture (60 parts reaction buffer/10 parts activation buffer/1 part each of donor and acceptor beads, Perkin Elmer, 6760617R) to a 384 well proxiplate (Perkin Elmer, 6006280) for the p-p70S6 kinase (Thr389) and p-AKT(Ser473) assays. Seal the plate and incubate at RT for 4 h. […] Read the plates on a Perkin Elmer EnVision equipped with a TurboModule using standard AlphaScreen® settings (Ex680 nm and Em520-620 nm). […]

[3] = system: GXF 97 human tumor xenograft cells; experiment: Oncotest tumor clonogenic assay, GXF 97; assay type: cell-based; settings: colony formation, Gastric GXF 97, adeno carcinoma, wd, read-out: Absolute IC50
[4] = system: pS240/244 S6RP; experiment: In vivo target inhibition in U87MG tumors, pS240/244 S6RP; settings: Mus musculus, U-87 MG; for inhibition at 0.5 mg/kg: 0.5 mg/kg oral; for inhibition at 1.5 mg/kg: 1.5 mg/kg oral; for inhibition at 3 mg/kg: 3 mg/kg oral; for inhibition at 6 mg/kg: 6 mg/kg oral; for inhibition at 10 mg/kg: 10 mg/kg oral; for inhibition at 12 mg/kg: 12 mg/kg oral
Procedure: Implant U87MG human glioblastoma cells (5×10^6) subcutaneously into the flank of athymic nude mice in 0.2 mL of matrigel. Ten days post-implantation, dose mice orally according to a time course, single dose/single time point, or dose response protocol for the determination of TMED50 (threshold minimum effective dose). Flash freeze tumors at harvest and collect blood for the determination of parent compound plasma exposure and the calculation of TMEC50 (threshold minimum effective concentration) in the case of dose response studies. Homogenize tumors in 500 μL of XY Lysis Buffer (10 μg/mL Leupeptin, 10 μg/mL Trypsin-Chymotrypsin Inhibitor, 10 μg/mL Tosyl phenyl-alanyl chloromethyl ketone, 10 μg/mL Aprotinin, 60 mM Beta-Glycerol Phosphate, 1% Triton X100, 25 mM Tris pH 7.5, 2.5 mM Pyrophosphate, 150 mM NaCl, 2 mM p-tosyl-L-arginine methyl ester, 15 mM para-nitrophenyl phosphate, 5 mM benzamidine, 1 mM sodium vanadate, 10 mM sodium fluoride, 50 μg/mL phenyl-methane sulfonyl fluoride, 1 mM 1,4-dithiothreitol (DTT), 15 mM EDTA pH 8.0, 5 mM EGTA pH 8.0, 1 μM Microcystin, 1 μM Okadaic Acid, and 1 Roche Complete protease inhibitor mini-tablet per 10 mL) using RNase Free Pellet Pestle (Kimble-Kontes). Aliquot lysates and either assay immediately or store at −80° C. for later testing. Use the multiplex format of Meso Scale Discovery (Gaithersburg, Md.) ELISA technology and measure in vivo target inhibition of PI3K and mTOR to assess effects on phosphorylation of the threonine 308 site of AKT, a downstream effector of PI3K; phosphorylation on the threonine 389 site of p70 S6K and on the serine 240/244 site of S6RP, downstream effectors of mTORC1; phosphorylation of the serine 473 site of AKT, a downstream effector of mTORC2. Add 20 μg of lysate to carbon electrode containing 96-well plates pre-spotted with the appropriate capture antibodies. Probe the protein of interest using a ruthenium labeled detection antibody. Pass current over the electrode in the presence of read buffer containing the co-reactant TPA, and quantitate and record the light generated by electro-chemiluminescence with the MSD Sector 6000 instrument. Calculate percent inhibitions relative to the vehicle control group and perform ANOVA analysis using the JMP software package for the determination of statistical significance.

Work on `CO[C@@H](C)Cn1c(=O)n(C)c2cnc3ccc(-c4cncc(C(C)(C)O)c4)cc3c21` [Example 1, 8-[5-(1-Hydroxy-1-methylethyl)pyridin-3-yl]-1-[(2S)-2-methoxypropyl]-3-methyl-1,3-dihydro-2H-imidazo[4,5-c]quinolin-2-one] yielded an IC50 [1] of 84 nM, an IC50 [2] of 106 nM and an IC50 [3] of 101 nM. The inhibition at 0.5 mg/kg ([4]; 0.5 hr post dose) was 9%, the inhibition at 0.5 mg/kg ([4]; 4 hr post dose) was 5% and the inhibition at 1.5 mg/kg ([4]; 0.5 hr post dose) was 4%. The inhibition at 1.5 mg/kg ([4]; 4 hr post dose) was 12%, the inhibition at 3 mg/kg ([4]; 0.25 hr post dose) was -11% and the inhibition at 3 mg/kg ([4]; 0.5 hr post dose) was 9%. The inhibition at 3 mg/kg ([4]; 1 hr post dose) was 51%, the inhibition at 3 mg/kg ([4]; 3 hr post dose) was 64% and the inhibition at 3 mg/kg ([4]; 4 hr post dose) was 37%. It also gave an inhibition at 6 mg/kg ([4]; 0.25 hr post dose) of 7%, an inhibition at 6 mg/kg ([4]; 0.5 hr post dose) of 26% and an inhibition at 6 mg/kg ([4]; 1 hr post dose) of 66%. The inhibition at 6 mg/kg ([4]; 2 hr post dose) was 83%, the inhibition at 6 mg/kg ([4]; 4 hr post dose) was 58% and the inhibition at 6 mg/kg ([4]; 6 hr post dose) was 55%. The inhibition at 6 mg/kg ([4]; 12 hr post dose) was -35%, the inhibition at 10 mg/kg ([4]; 0.5 hr post dose) was -4% and the inhibition at 10 mg/kg ([4]; 1 hr post dose) was 69%. For the same compound, the inhibition at 10 mg/kg ([4]; 2 hr post dose) was 89%, the inhibition at 10 mg/kg ([4]; 4 hr post dose) was 95% and the inhibition at 10 mg/kg ([4]; 8 hr post dose) was 16%. It also gave an inhibition at 12 mg/kg ([4]; 0.5 hr post dose) of 55% and an inhibition at 12 mg/kg ([4]; 4 hr post dose) of 97%.

From patent US8658668B2, “PI3 kinase/mTOR dual inhibitor” (Eli Lilly and Company, priority 2011, dated 2014)
